Our source for the IC50 values is US20220324865A1 (Bayer Aktiengesellschaft, priority 2018, published 2022).

Molecules are shown by their SMILES. pIC50: −log10 of the molar value.

The target in this experiment is T1, human EP3 receptor (Homo sapiens, UniProt P43115).
T1 construct: expressed in transfected cells; host or cells: CHO K1 (Chinese Hamster Ovary), stably co-transfected with Galpha16 and mitochondrial clytin
T1 sequence (P43115 1-390): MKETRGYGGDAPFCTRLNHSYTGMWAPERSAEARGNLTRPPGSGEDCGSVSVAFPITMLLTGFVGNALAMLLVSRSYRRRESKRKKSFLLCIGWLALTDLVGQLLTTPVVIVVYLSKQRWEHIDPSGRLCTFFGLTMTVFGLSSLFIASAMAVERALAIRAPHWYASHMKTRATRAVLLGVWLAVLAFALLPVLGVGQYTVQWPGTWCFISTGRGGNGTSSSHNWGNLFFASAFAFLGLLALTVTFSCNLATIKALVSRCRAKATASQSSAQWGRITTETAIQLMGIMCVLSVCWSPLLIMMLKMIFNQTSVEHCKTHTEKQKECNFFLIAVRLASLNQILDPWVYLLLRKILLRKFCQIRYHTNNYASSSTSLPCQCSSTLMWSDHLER
Description: Cellular in vitro assay for determining EP3 receptor activity (human EP3 cell line, sulprostone-stimulated calcium luminescence). In kind it is cell-based. The following applies: CHO cells expressing human EP3 and mitochondrial Clytin; antagonist mode, sulprostone at EC50; read-out: EP3 CHO mtCLY ANTAG IC50. The method, then: B-1. Cellular In Vitro Assay for Determining EP3 Receptor Activity
The identification of antagonists of the EP3 receptor from humans and rats as well as the quantification of the activity of the compounds of the invention was carried out using recombinant cell lines. These cell lines originally derive from a hamsters ovary epithelial cell (Chinese Hamster Ovary, CHO K1, ATCC: American Type Culture Collection, Manassas, Va. 20108, USA). The test cell lines constitutively express the human or rat EP3 receptors. The naturally Gαi-coupled human and rat EP3 receptors were stably co-transfected with Gα16 into cells that are also stably transfected with a mitochondrial form of the calcium-sensitive photoproteins Clytin (human EP3) or Photina (rat EP3), which, after reconstitution with the cofactor coelenterazine, emit light when there are increases in free calcium concentrations (Nature 1992, 358, 325-327; Gene 1995, 153 (2), 273-274). The resulting EP3 receptor cells react to stimulation of the recombinantly expressed EP3 receptors by the agonist sulprostone with intracellular release of calcium ions, which can be quantified by the resulting photoprotein luminescence. Antagonists inhibit the receptor signaling, leading to reduced calcium release and luminescence. The bioluminescence of the cell lines is detected using a suitable luminometer (Trends Pharmacol. Sci. 1996, 17, 235-237).
Human and Rat EP3 Cell Lines:
On the day before the assay, the cells are plated out in culture medium (OptiMEM, 1% FCS, 2 mM glutamine, 10 mM HEPES, 5 μg/ml coelenterazine) in 384-well microtiter plates and kept in a cell incubator (96% humidity, 5% v/v CO2, 37° C.). On the day of the assay, test compounds in various concentrations are placed for 10 minutes in the wells of the microtiter plate before the agonist sulprostone at EC50 concentration is added. The resulting light signal is measured immediately in a luminometer. All concentrations are measured in quadruples.
Take `O=C(NC(c1ccc(F)cc1)C1(O)CC1)c1nn2cc(-c3ccc(Cl)c(F)c3)[nH]c(=O)c2c1C1CC1` (racemic) [6-96]: the pIC50 is 9.31.

In the case of `Cc1ccc(-c2cn3nc(C(=O)NCC(O)C(F)(F)F)c(C(F)(F)F)c3c(=O)[nH]2)cc1C` (racemic) [6-115], the pIC50 is 9.02.

Turning to `Cc1ccc(-c2cn3nc(C(=O)NCC(N)C(F)(F)F)c(C(F)(F)F)c3c(=O)[nH]2)cc1C` (racemic) [6-118], the pIC50 is 8.25.

Consider `Cc1cc(-c2cn3nc(C(=O)NC(CO)c4ccc(F)cc4)c(C4CC4)c3c(=O)[nH]2)ccc1C(F)(F)F` (racemic) [6-129], for which the pIC50 was 8.26.

As for `Cc1cc(-c2cn3nc(C(=O)NCC(N)C(F)(F)F)c(C4CC4)c3c(=O)[nH]2)ccc1C(F)(F)F` (racemic) [6-130], the pIC50 was 7.53.

Regarding `Cc1cc(-c2cn3nc(C(=O)NC(c4ccc(F)cc4)C(C)(C)O)c(C4CC4)c3c(=O)[nH]2)ccc1C(F)(F)F` (racemic) [6-133], the pIC50 was 8.30.

`Cc1ccc(-c2cn3nc(C(=O)NC(C)C4CC4)c(C(F)(F)F)c3c(=O)[nH]2)cc1F` (racemic) [6-147]: the pIC50 was 8.25.

On to `Cc1ccc(-c2cn3nc(C(=O)NCC(O)C(F)(F)F)c(C(F)(F)F)c3c(=O)[nH]2)cc1Cl` (racemic) [6-158], for which the pIC50 is 8.81.

As to `Cc1ccc(-c2cn3nc(C(=O)NC(CO)C(F)(F)F)c(C(F)(F)F)c3c(=O)[nH]2)cc1Cl` (racemic) [6-161], the pIC50 is 8.64.

Take `Cc1ccc(-c2cn3nc(C(=O)NCC(C)(N)C(F)(F)F)c(C(F)(F)F)c3c(=O)[nH]2)cc1Cl` (racemic) [6-169]: the negative-log IC50 (pIC50) is 8.39.

For the compound `Cc1ccc(-c2cn3nc(C(=O)NC(C)C4CCC4)c(C(F)(F)F)c3c(=O)[nH]2)cc1Cl` (racemic) [6-193], the pIC50 is 8.39.

For `Cc1cc(-c2cn3nc(C(=O)NC(c4ccc(F)cc4)C4(O)CC4)c(C(F)(F)F)c3c(=O)[nH]2)ccc1Cl` (racemic) [6-210], the pIC50 is 8.84.

As to `Cc1cc(-c2cn3nc(C(=O)NC(C)C4CCC4)c(C(F)(F)F)c3c(=O)[nH]2)ccc1Cl` (racemic) [6-222], the pIC50 was 8.95.

Regarding `Cc1ccc(-c2cn3nc(C(=O)NCC(O)C(F)(F)F)c(C4CC4)c3c(=O)[nH]2)cc1C(F)(F)F` (racemic) [6-243], the pIC50 is 8.70.

Consider `Cc1ccc(-c2cn3nc(C(=O)NC(CO)C(F)(F)F)c(C4CC4)c3c(=O)[nH]2)cc1C(F)(F)F` (racemic) [6-248], for which the pIC50 is 8.61.

On to `Cc1ccc(-c2cn3nc(C(=O)NCC(O)C(F)(F)F)c(C4CC4)c3c(=O)[nH]2)cc1Cl` (racemic) [6-258], for which the pIC50 was 9.09.

Turning to `CCN1CCC(NC(=O)c2nn3cc(-c4ccc(Cl)c(C)c4)[nH]c(=O)c3c2C2CC2)(C(F)(F)F)C1` (racemic) [6-292], the pIC50 is 8.69.

Regarding `Cc1cc(-c2cn3nc(C(=O)NC(C)C4CCC4)c(C4CC4)c3c(=O)[nH]2)ccc1Cl` (racemic) [6-298], the pIC50 was 8.55.

On to `Cc1cc(-c2cn3nc(C(=O)NCCC(O)C(F)(F)F)c(C4CC4)c3c(=O)[nH]2)ccc1Cl` (racemic) [6-309], for which the pIC50 is 8.95.

For the compound `Cc1cc(-c2cn3nc(C(=O)NCC(O)C(F)(F)F)c(C4CC4)c3c(=O)[nH]2)ccc1Cl` (racemic) [6-312], the pIC50 was 8.89.

For the compound `Cc1cc(-c2cn3nc(C(=O)NCC(C)(N)C(F)(F)F)c(C4CC4)c3c(=O)[nH]2)ccc1Cl` (racemic) [6-319], the pIC50 is 8.93.

As for `Cc1ccc(-c2cn3nc(C(=O)NC(c4ccc(F)cc4)C(F)(F)CO)cc3c(=O)[nH]2)cc1C` (racemic) [6-357], the pIC50 is 8.71.

For `Cc1ccc(-c2cn3nc(C(=O)NC4(c5ccc(F)cc5)CCN(C)C4)cc3c(=O)[nH]2)cc1C` (racemic) [6-362], the pIC50 is 7.57.

For `Cc1ccc(-c2cn3nc(C(=O)NCCC(O)C(F)(F)F)c(C4CC4)c3c(=O)[nH]2)cc1F` (racemic) [6-366], the pIC50 is 8.66.

Turning to `Cc1ccc(-c2cn3nc(C(=O)NCC(O)C(F)F)c(C4CC4)c3c(=O)[nH]2)cc1F` (racemic) [6-369], the pIC50 is 8.52.

Usually pIC50 stands for the IC50 on a negative log10 scale, so that one unit is a factor of ten.
